# “Also recorded” adds a separate entry of the source.
# Tests used:
# rodent models of ADPKD = settings: cited from earlier work; for cystogenesis: rodent models of ADPKD, by reducing cAMP production in the kidney
# [1] = tested on: cAMP production in primary cultures of rat IMCD cells; assay: dDAVP-induced cAMP production in primary cultures of rat IMCD cells (EIA); assay type: cell-based
# Method: FIG. 7 is a graph showing the effect of ticagrelor on dDAVP-induced cAMP production in primary cultures of rat IMCD cells: Cells were incubated for 48 h with ticagrelor (5 μM). During the second 24 hours, cells were challenged with dDAVP (20 nM).
# dDAVP acting through the vasopressin V2 receptor in IMCD cells stimulates the production of cAMP (FIG. 7). In the collecting ducts in vivo, in the short-term AVP increases cellular cAMP levels to cause translocation of AQP2 protein from the subapical vesicles to apical plasma membrane, and thus increase the water permeability of the apical plasma membrane, the rate limiting barrier for transepithelial water transport. In the long-term, increased cellular cAMP levels induce transcriptional activation of AQP2 and other genes. […] Primary cultures of rat IMCD cells were prepared and incubated with desmopressin with/without ticagrelor (5 μM) as described above. For cAMP assay, the medium was gently aspirated, 200 μl of 0.1 M HCl was added to each insert and incubated for 20 min at room temperature. Then cells were scrapped off the semi-permeable support and lysed by pipetting up and down. The cell lysate was centrifuged at 1,000×g for 10 min. cAMP concentration in the supernatant was determined by an EIA kit (Cayman Chemical Co.) and normalized to the protein content of the wells (Pierce™ BCA Protein Assay Kit, Rockford, Ill.).
# ADPKD = settings: clinical trials; cited from earlier work
# [2] = tested on: DBA/2FG-pcy mouse model of ADPKD; settings: tolvaptan concentrations between 0.01% and 0.30% in food; cited from earlier work
# [3] = patients; long-term administration; cited from earlier work
# [4] = in vivo; cited from earlier work
# vasopressin V2 receptor = vasopressin V2 receptor (Homo sapiens, UniProt P30518); settings: chronic blockade of vasopressin V2 receptor; cited from earlier work
# vasopressin V2 receptor, sequence (P30518 whole entry, species assumed): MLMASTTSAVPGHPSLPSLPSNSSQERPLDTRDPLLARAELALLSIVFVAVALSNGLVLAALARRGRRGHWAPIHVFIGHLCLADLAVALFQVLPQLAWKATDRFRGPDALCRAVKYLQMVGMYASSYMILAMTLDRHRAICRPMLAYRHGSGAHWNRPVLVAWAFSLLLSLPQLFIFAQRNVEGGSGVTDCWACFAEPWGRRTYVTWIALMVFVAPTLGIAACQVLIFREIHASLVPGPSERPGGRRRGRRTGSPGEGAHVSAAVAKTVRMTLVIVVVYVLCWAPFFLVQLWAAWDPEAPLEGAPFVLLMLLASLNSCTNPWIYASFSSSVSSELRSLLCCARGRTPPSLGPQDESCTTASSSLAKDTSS
# CYP3A4 system = CYP3A4 system (Homo sapiens, UniProt P08684); settings: cited from earlier work
# CYP3A4 system, sequence (P08684 whole entry): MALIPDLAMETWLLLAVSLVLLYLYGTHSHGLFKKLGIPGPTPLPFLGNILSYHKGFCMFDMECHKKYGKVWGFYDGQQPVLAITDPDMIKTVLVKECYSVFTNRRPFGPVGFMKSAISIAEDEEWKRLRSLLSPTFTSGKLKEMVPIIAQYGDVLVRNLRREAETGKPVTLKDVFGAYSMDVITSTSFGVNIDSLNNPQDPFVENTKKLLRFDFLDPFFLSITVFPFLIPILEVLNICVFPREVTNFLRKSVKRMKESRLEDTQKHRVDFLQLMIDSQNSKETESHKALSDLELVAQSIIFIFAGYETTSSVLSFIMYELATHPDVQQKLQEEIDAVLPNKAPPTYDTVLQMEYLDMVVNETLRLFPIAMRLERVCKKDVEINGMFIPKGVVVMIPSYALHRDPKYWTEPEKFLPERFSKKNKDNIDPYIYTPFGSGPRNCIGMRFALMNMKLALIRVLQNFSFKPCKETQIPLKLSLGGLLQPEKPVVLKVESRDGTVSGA
# [5] = Plasma concentration of ticagrelor by LC-MS/MS in mice fed ticagrelor; assay type: in vivo; settings: corresponding to a dose of 0.15% or above in food, day 14
# Method: (§1) Different doses of ticagrelor (0.05 to 0.25%) were administered to mice embedded in standard rodent chow (w/w) for 14 days. Twenty-four hour urine samples were collected from the mice by placing them in individual plastic metabolic cages (1 mouse/cage) for two consecutive days, with free access to food and water. Urine samples in the metabolic cages were collected under a layer of light mineral oil. The volumes of urine samples collected were recorded. Urine samples were centrifuged to remove particulate matter. Clear supernatants thus obtained were used for analysis. Blood samples were collected at the time of euthanasia on day 14, as per the protocol recommended by the AstraZeneca for samples destined for the determination of plasma ticagrelor. Briefly, under isoflourane anesthesia, blood from the posterior vena cava was collected and transferred to EDTA K-coated microtubes (Microvette®, Sarstedt, Nümbrecht, Germany). Plasma was separated by centrifugation within 30 min after collection and frozen at −80° C. The frozen samples were shipped in dry ice by FedEx to AstraZeneca (Mölndal, Sweden). At AstraZeneca R&D, the plasma concentration of ticagrelor was determined by liquid chromatography tandem mass spectrometry (LC-MS/MS). FIGS. 1-5 show the data obtained.
# [6] = tested on: medullary collecting duct cells; assay: Proliferation of medullary collecting duct cells; assay type: cell-based; settings: increasing concentrations of ticagrelor
# AQP3 = assay: dDAVP-induced AQP3 mRNA expression in primary cultures of rat IMCD cells (real-time PCR); assay type: cell-based
# Method: (§2) FIGS. 6A-C show the effect of ticagrelor on the mRNA expression of AQP2 (A) and AQP3 (B) relative to the expression R3-actin and the effect of ticagrelor on the mRNA expression of AQP2 relative to GAPDH (C) in primary cultures of rat inner medullary collecting duct (IMCD) cells. Cells were incubated with different concentrations of ticagrelor (0.5 to 25 μM) for 48 hours. During the second 24 hours, the cells were challenged with dDAVP (20 nM). The numbers in parentheses above the bars indicate the number of culture wells.
# (§3) Primary cultures of rat inner medullary collecting duct (IMCD) cells were prepared. When the cells became 70-80% confluent, the medium was changed to relative starvation mode (low FBS), and used for testing the effect of Desmopressin (dDAVP), a V2 receptor-selective analogue of AVP, and/or ticagrelor. Cells were incubated for 48 h with ticagrelor ranging from 1.5 to 25 μM. During the second 24 hours, cells were challenged with dDAVP (20 nM). At the end of the incubation period, cells were harvested, RNA extracted, reverse transcribed and subjected to real-time PCR to determine the expression of AQP2 and AQP3 genes relative to the expression of the housekeeping genes (β-actin or GAPDH).
# (§4) Results (FIGS. 6A-C) are presented as percent of the values in control incubations without any addition of agents. FIGS. 6A-C show the effect of different concentrations of ticagrelor on dDAVP (20 nM)-induced AQP2 or AQP3 expression relative to p-actin expression in primary cultures of rat IMCD cells. Two independent assays on primary cultures of IMCD cells derived from two different rats at different times were used, and the data obtained were pooled for analysis and presentation in the graphs. Data were analyzed by analysis of variance (ANOVA) followed by Tukey-Kramer Multiple Comparison Test. The numbers in parentheses above the bars indicate the number of culture wells.
# B6D2 mice = assay: Ticagrelor in diet (or clopidogrel in drinking water) for 14 days: urinary AVP, urine output and urine osmolality in mice; assay type: in vivo; settings: for effects shown in FIGS. 2-5 (urine output, urine osmolality, urinary AVP): comparison with other P2Y12 receptor antagonists
# Method: The study evaluated the effect of increasing doses of ticagrelor from 0.05% to 0.25% (incremental doses of 0.05, 0.10, 0.15, 0.20 and 0.25%) administered to mice for 2 weeks and compared them with that obtained by administering increasing doses of clopidogrel bisulfate (20, 40 or 80 mg/kg bw/day). For this study adult B6D2 mice were used. Different doses of ticagrelor were administered embedded in diet. Clopidogrel bisulfate (Plavix® tablets) were powdered and dissolved in drinking water for administration. The concentration of clopidogrel in the water was adjusted on daily basis based on the water consumption by mice on the previous day.
# Rodent diets containing ticagrelor at different concentrations were prepared as follows. 15 grams of ticagrelor was shipped to MP Biomedicals (Solon, Ohio, USA) for custom preparation of 10 kg of rodent chow in pellet form containing 0.15% ticagrelor. The custom-made diet was received and was stored at +4° C. Later in the study, for the preparation of diets containing 0.20% or 0.25%, the above custom-prepared diet (containing 0.15% ticagrelor) was used as a base and the required amount of ticagrelor was added. Diets containing 0.05 and 0.10% ticagrelor were prepared de novo.
# Clopidogrel bisulfate was administered orally by mixing finely powdered Plavix® tablets (Bristol-Myers Squibb, New York, N.Y.) in drinking water. The concentration of the drug in the drinking water was adjusted daily based on the water consumption of the animals on the previous day. Three different doses (20, 40 and 80 mg/kg bw/day) were administered. Since it is not possible to work with more than 15 to 20 mice in metabolic cages at any given time, the experimental animals were handled in two batches in a staggered fashion. Urine samples were collected on day 0 (prior to the experimental period), on days 6/7 (end of the first week) and days 13/14 (end of the second week). Terminal blood samples were collected from the posterior vena cava at the time of euthanasia. Kidney tissues were collected and cortex and medulla were separated by sharp dissection and flash frozen for analysis. Within a few minutes after collection, blood samples were centrifuged at +4° C. and plasma was separated and frozen. Urinary AVP levels were assayed by ELISA.
# as §1
# AQP2 = assay: dDAVP-induced AQP2 mRNA expression in primary cultures of rat IMCD cells (real-time PCR); assay type: cell-based
# Method: as §2, §3, §4
# P2Y12 receptor = biological target: T1, P2Y12 receptor (Rattus norvegicus, UniProt Q9EPX4); assay: Blockade of P2Y12 receptor in primary cultures of rat hypothalamic cells: expression of AVP; assay type: cell-based
# T1 construct: endogenous in cells; host or cells: primary cultures of rat hypothalamic cells
# T1 sequence (Q9EPX4 whole entry): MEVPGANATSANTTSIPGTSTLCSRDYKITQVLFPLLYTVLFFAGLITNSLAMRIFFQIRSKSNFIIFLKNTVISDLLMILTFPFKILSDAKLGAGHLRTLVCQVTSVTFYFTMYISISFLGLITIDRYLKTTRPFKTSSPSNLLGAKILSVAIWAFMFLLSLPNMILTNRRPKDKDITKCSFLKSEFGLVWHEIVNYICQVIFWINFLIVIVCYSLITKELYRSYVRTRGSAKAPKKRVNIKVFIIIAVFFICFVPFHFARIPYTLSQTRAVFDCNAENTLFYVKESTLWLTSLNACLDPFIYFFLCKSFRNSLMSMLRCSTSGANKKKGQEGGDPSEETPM
# [7] = tested on: lithium-induced NDI in rodent models; settings: cited from earlier work
# [8] = different concentrations of ticagrelor 48 h, dDAVP 20 nM during second 24 h
# [9] = different concentrations of ticagrelor 48 h, dDAVP 20 nM during second 24 h, listed as Ticagrelor
# [10] = ticagrelor 2 μM, listed as Ticagrelor
# [11] = ticagrelor 10 μM, listed as Ticagrelor
# [12] = ticagrelor 0.05 to 0.25% in food, 14 days
smiles,measurement,setting,value
Cc1ccccc1C(=O)Nc1ccc(C(=O)N2CCCC(N(C)C)c3ccccc32)cc1 (stereo not drawn) [OPC-31260],cystogenesis,rodent models of ADPKD,consistently inhibited
"NC(=O)CC[C@@H]1NC(=O)[C@H](Cc2ccccc2)NC(=O)[C@H](Cc2ccc(O)cc2)NC(=O)CCSSC[C@@H](C(=O)N2CCC[C@H]2C(=O)N[C@H](CCCN=C(N)N)C(=O)NCC(N)=O)NC(=O)[C@H](CC(N)=O)NC1=O [desmopressin, Desmopressin]",increase in cellular cAMP levels,"[1]; 20 nM desmopressin, IMCD cells",3.6 fold
Cc1ccccc1C(=O)Nc1ccc(C(=O)N2CCCC(O)c3cc(Cl)ccc32)c(C)c1 (stereo not drawn) [tolvaptan],efficacy for the treatment of ADPKD,ADPKD,established
same,optimum concentration in food,[2],0.10%
same,side effects,[3],"severe polyuria (loss of water in the urine), nocturia (frequent urination in the night), thirst and dry mouth; also recorded: constipation, loss of appetite, dry skin, nausea, vomiting, and potential for acute liver failure"
same,pharmacokinetics,[4],"dose-related pharmacokinetics, it is unpredictable in ADPKD patients"
same,cyst growth,rodent models of ADPKD; experimental models of ADPKD,slow down the cyst growth
same,cystogenesis,rodent models of ADPKD,consistently inhibited
same,endogenous production of AVP,vasopressin V2 receptor,increased
same,metabolism,CYP3A4 system,metabolized by the CYP3A4 system
CCCSc1nc(N[C@@H]2C[C@H]2c2ccc(F)c(F)c2)c2nnn([C@@H]3C[C@H](OCCO)[C@@H](O)[C@H]3O)c2n1 [ticagrelor],plasma ticagrelor level above which the relation to urine osmolality and AVP was more pronounced,[5],above 1.30 μM
same,proliferation of medullary collecting duct cells,[6],decrease
same,effect on desmopressin-induced cAMP levels,"[1]; 5 μM ticagrelor, 48 h, dDAVP 20 nM",did not have any significant effect
same,side effects,[3],uncontrolled bleeding from wounds or internal ulcers
same,effect on dDAVP-induced AQP3 mRNA expression,AQP3; [8],augmented
same,effect on dDAVP-induced AQP3 mRNA expression,AQP3; [9],tendency for concentration-dependent enhancement
same,effect on dDAVP-induced AQP3 mRNA expression,AQP3; ticagrelor 2 μM,augmentative effect was seen; also recorded: tendency to augment
same,effect on dDAVP-induced AQP3 mRNA expression,AQP3; [10],statistically significant
same,effect on dDAVP-induced increase in AQP3 expression,AQP3; ticagrelor 5 μM,did not suppress
same,effect on dDAVP-induced AQP3 mRNA expression,AQP3; ticagrelor 10 μM,more prominent
same,effect on dDAVP-induced AQP3 mRNA expression,AQP3; [11],statistically significant
same,effect on AQP3 gene expression,AQP3; ticagrelor 25 μM,suppressing the gene expression to a very low level; also recorded: almost completely suppressed
same,urinary AVP (vasopressin),B6D2 mice; 0.25% ticagrelor in the food,marked decrease
same,urine concentrating ability,B6D2 mice; 0.25% ticagrelor in the food,significant reduction
same,urinary AVP,B6D2 mice; lower doses of ticagrelor in the food,minimal effect
same,urine osmolality,B6D2 mice; [12],decrease
same,urine output,B6D2 mice; [12],increase
same,urinary AVP excretion,"B6D2 mice; ticagrelor 0.05 to 0.25% in food, 14 days, 24-hour urine, normal mice",dose-related decrease; also recorded: dose-dependent decrease
same,urinary concentrating ability,"B6D2 mice; ticagrelor 0.05 to 0.25% in food, 14 days, assessed by urine output and osmolality",dose-related decrease; also recorded: dose-dependent decrease
same,effect on dDAVP-induced AQP2 mRNA expression,AQP2; [8],augmented
same,effect on dDAVP-induced AQP2 mRNA expression,AQP2; [9],tendency for concentration-dependent enhancement
same,effect on dDAVP-induced AQP2 mRNA expression,AQP2; ticagrelor 2 μM,augmentative effect was seen; also recorded: tendency to augment
same,effect on dDAVP-induced AQP2 mRNA expression,AQP2; [10],statistically significant
same,effect on dDAVP-induced increase in AQP2 expression,AQP2; ticagrelor 5 μM,did not suppress
same,effect on dDAVP-induced AQP2 mRNA expression,AQP2; ticagrelor 10 μM,more prominent
same,effect on dDAVP-induced AQP2 mRNA expression,AQP2; [11],statistically significant
same,effect on AQP2 gene expression,AQP2; ticagrelor 25 μM,suppressing the gene expression to a very low level; also recorded: almost completely suppressed
Nc1c(S(=O)(=O)O)cc(Nc2ccc(Nc3ccccc3)c(S(=O)(=O)O)c2)c2c1C(=O)c1ccccc1C2=O [PSB-0739],expression of AVP,P2Y12 receptor,increased
"COC(=O)[C@H](c1ccccc1Cl)N1CCc2sccc2C1 [clopidogrel, clopidogrel bisulfate]",lithium-induced NDI,[7],significantly ameliorate
same,"effects shown in FIGS. 2-5 (urine output, urine osmolality, urinary AVP)",B6D2 mice,could not be seen
same,effect on the production of AVP by the hypothalamus,"B6D2 mice; mouse, in vivo",did not have such an effect
CC(=O)Oc1cc2c(s1)CCN(C(C(=O)C1CC1)c1ccccc1F)C2 (stereo not drawn) [prasugrel],"effects shown in FIGS. 2-5 (urine output, urine osmolality, urinary AVP)",B6D2 mice,could not be seen

# Source: US11354990B2, “Treatment of kidney diseases associated with elevated AVP” (United States Government As Represented By The Department …, priority 2017, dated 2022)
